Earlier results as cited in patent US11975000B1, “Tadalafil oral transmucosal film” (Xiamen LP Pharmaceutical Co., Ltd., priority 2023, dated 2024).

Key:
[1] = in vivo

- Solubility (in words): practically insoluble in water
- Water solubility (in water at 25° C., U.S. Pat. No. 6,841,167): about 2 μg/mL
SMILES: CN1CC(=O)N2[C@H](c3ccc4c(c3)OCO4)c3[nH]c4ccccc4c3C[C@@H]2C1=O [Tadalafil, (6R-trans)-6-(1,3-benzodioxol-5-yl) 2,3,6,7,12,12a-hexahydro-2-methyl-pyrazino[1′,2′:1,6]pyrido[3,4-b]indole-1,4-dione]
- Duration of action [1]: 24 to 36 h
- Reported maximum duration [1]: 72 h
